Measurements taken from PubChem BioAssay AID206 (DTP/NCI, 2004).
Inconclusive results are not listed.

Test system: nude mice, HT29 intrarenal xenograft, tumor weight T/C
Test: NCI In Vivo Anticancer Drug Screen. Data for tumor model HT29;CX-1 Human Adenocarcinoma (MER+) (intrarenal inoculation) in NU/NU Swiss (nude) mice
Conditions: endpoint: mean tumor weight change, schedule: Q04DX004 (sc), higher = larger tumour
Method in brief: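 Mice with transplanted tumors are dosed with compound while controls get vehicle only. Survival or tumor burden is then assessed per group, and the treated value is expressed relative to control.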

SMILES | T/C (dose: 80.0 mg/kg/injection, vehicle: saline with Tween-80) | T/C (dose: 160.0 mg/kg/injection, vehicle: saline with Tween-80) | T/C (dose: 320.0 mg/kg/injection, vehicle: saline with Tween-80) | T/C (dose: 640.0 mg/kg/injection, vehicle: saline with Tween-80) | T/C (dose: 300.0 mg/kg/injection, vehicle: suspension in saline) | T/C (dose: 600.0 mg/kg/injection, vehicle: suspension in saline) | T/C (dose: 1200.0 mg/kg/injection, vehicle: suspension in saline) | T/C (dose: 2400.0 mg/kg/injection, vehicle: suspension in saline)
CSc1cc(=O)n2c3ccccc3c3ccnc1c32 | 88 % of control | 91 % of control | 110 % of control | 58 % of control | – | – | – | –
CC(=O)OCC1OC(n2ccc(N)nc2=O)C(OC(C)=O)C1OC(C)=O (stereo not drawn) | – | – | – | – | 43 % of control | 50 % of control | 43 % of control | 24 % of control
